Measurements published in US9132140B2, “Boronic acid derivatives and therapeutic uses thereof” (Rempex Pharmaceuticals, Inc., priority 2013, dated 2015).
Where two headings read alike, the source gives them in different places.

Columns and labels:
[1] = target: KPC-2 (Klebsiella pneumoniae, UniProt Q9F663); experiment: Inhibition of purified beta-lactamase, nitrocefin cleavage; format: biochemical; details: read-out: Ki (KPC-2, NCF)
Protocol: (§1) Purified enzymes were mixed with various concentrations of inhibitors in reaction buffer and incubated for 10 min at room temperature. Nitrocefin was added and substrate cleavage profiles were recorded at 490 nm every 10 sec for 10 min.

[2] = target: OXA-48 (Klebsiella pneumoniae, UniProt Q6XEC0); experiment: as above; format: biochemical; details: read-out: Ki (OXA-48, NCF)
Chain of OXA-48 (Q6XEC0 23-265, looked up): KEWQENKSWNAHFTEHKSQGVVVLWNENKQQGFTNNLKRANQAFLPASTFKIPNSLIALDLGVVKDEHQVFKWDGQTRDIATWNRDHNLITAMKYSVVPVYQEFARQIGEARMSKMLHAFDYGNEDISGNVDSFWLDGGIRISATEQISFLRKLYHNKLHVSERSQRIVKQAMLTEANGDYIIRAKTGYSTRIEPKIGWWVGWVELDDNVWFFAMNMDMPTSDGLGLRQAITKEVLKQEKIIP
Protocol: as §1

[3] = target: CMY-2 (Klebsiella pneumoniae, UniProt Q48434); experiment: as above; format: biochemical
Chain of CMY-2 (Q48434 21-381, species assumed): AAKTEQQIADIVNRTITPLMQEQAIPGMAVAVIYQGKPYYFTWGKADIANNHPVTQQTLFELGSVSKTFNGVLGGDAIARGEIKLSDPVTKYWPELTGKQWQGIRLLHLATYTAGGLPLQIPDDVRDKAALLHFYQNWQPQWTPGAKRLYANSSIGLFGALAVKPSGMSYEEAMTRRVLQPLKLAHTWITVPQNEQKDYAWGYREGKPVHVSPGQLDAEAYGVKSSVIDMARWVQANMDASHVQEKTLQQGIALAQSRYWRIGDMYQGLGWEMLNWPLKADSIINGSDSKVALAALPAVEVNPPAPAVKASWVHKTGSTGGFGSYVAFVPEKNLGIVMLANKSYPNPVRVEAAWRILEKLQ
Protocol: as §1

[4] = target: CTX-M-14 (Escherichia coli, UniProt Q9L5C7); experiment: as above; format: biochemical
Chain of CTX-M-14 (Q9L5C7 entry or part of it): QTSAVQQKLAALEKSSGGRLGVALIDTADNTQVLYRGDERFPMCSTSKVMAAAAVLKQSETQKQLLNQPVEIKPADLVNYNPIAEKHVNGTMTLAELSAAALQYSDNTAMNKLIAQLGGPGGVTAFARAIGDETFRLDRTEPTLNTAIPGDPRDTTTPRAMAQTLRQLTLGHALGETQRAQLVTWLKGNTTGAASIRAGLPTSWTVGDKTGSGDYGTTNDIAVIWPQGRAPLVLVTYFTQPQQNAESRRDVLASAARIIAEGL
Protocol: as §1

[5] = target: SHV-12 (Klebsiella pneumoniae, UniProt P0AD64, E235K/G234S/L31Q); experiment: as above; format: biochemical; details: read-out: Ki (SHV-12, NCF)
Chain of SHV-12 (P0AD64 22-286 L31Q/G234S/E235K): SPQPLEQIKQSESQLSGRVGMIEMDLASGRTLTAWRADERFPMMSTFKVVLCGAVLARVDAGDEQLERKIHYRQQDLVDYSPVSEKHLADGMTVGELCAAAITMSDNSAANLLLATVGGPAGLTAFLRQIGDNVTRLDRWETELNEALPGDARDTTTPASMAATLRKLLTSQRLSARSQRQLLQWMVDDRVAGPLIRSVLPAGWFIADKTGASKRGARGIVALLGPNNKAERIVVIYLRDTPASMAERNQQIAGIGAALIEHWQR
Protocol: as §1

[6] = target: P99/AmpC of ECL (Enterobacter cloacae, UniProt P05364); experiment: biochemical; details: nitrocefin; read-out: Ki (P99/AmpC of ECL, NCF)
Chain of P99/AmpC of ECL (P05364 21-381): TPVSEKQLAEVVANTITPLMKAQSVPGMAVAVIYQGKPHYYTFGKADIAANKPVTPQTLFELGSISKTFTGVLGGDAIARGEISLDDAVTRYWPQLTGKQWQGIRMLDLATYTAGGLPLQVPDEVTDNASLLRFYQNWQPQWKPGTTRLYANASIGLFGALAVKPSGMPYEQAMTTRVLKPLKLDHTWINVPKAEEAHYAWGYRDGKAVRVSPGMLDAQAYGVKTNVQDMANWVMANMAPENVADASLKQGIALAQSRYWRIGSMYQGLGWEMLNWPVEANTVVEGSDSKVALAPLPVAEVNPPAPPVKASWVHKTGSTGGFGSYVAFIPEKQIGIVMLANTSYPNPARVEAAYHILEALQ
Protocol: as §1

[7] = nitrocefin, read-out: Ki (CMY-2, NCF)

Chain of KPC-2 (Q9F663 25-293, looked up, species assumed): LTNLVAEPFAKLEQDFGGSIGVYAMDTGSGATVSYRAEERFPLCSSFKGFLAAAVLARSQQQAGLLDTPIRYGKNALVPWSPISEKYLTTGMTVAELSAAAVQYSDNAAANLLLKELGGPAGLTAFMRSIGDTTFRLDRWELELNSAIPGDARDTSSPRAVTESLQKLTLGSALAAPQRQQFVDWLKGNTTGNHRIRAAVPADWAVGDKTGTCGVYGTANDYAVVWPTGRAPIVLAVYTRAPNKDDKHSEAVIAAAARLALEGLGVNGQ

With C[C@]1(Cn2ccnn2)[C@H](C(=O)O)N2C(=O)C[C@H]2S1(=O)=O [Tazobactam, reference compound] the Ki [1] was > 1000 nM, the Ki [2] was 100 to 1000 nM and the Ki [3] was 100 to 1000 nM.

For O=C(O)[C@H]1/C(=C/CO)O[C@@H]2CC(=O)N21 [Clavulanic acid, reference compound], the Ki [1] was > 1000 nM, the Ki ([4]; nitrocefin, read-out: Ki (CTX-M-14, NCF)) was < 100 nM and the Ki [2] was > 1000 nM. The Ki [3, 7] was > 1000 nM.

Nc1nnc(S[C@H]2Cc3ccc(F)c(C(=O)O)c3OB2O)s1 [Compound 23, (R)-3-(5-amino-1,3,4-thiadiazol-2-ylthio)-7-fluoro-2-hydroxy-3,4-dihydro-2H-benzo[e][1,2]oxaborinine-8-carboxylic acid] was tested, and the Ki [1] was < 100 nM, the Ki [4] was < 100 nM and the Ki [2] was < 100 nM. The Ki [5] was < 100 nM and the Ki [6] was < 100 nM.

In the case of O=C(O)c1cccc2c1OB(O)[C@@H](Sc1c[nH]nn1)C2 [Compound 12, (R)-3-(1H-1,2,3-triazol-4-ylthio)-2-hydroxy-3,4-dihydro-2H-benzo[e][1,2]oxaborinine-8-carboxylic acid], the Ki [1] is reported as 100 to 1000 nM.

For CSc1ccc2c(c1C(=O)O)OB(O)[C@@H](Sc1nncn1N)C2 [Compound 25, (R)-3-(4-amino-4H-1,2,4-triazol-3-ylthio)-2-hydroxy-7-(methylthio)-3,4-dihydro-2H-benzo[e][1,2]oxaborinine-8-carboxylic acid], the Ki [1] was 100 to 1000 nM, the Ki [4] was < 100 nM and the Ki [2] was < 100 nM. The Ki [5] was < 100 nM and the Ki [6] was 100 to 1000 nM.

With Nc1nnc(S[C@H]2Cc3cccc(C(=O)O)c3OB2O)s1 [Compound 4, (R)-3-(5-amino-1,3,4-thiadiazol-2-ylthio)-2-hydroxy-3,4-dihydro-2H-benzo[e][1,2]oxaborinine-8-carboxylic acid] the Ki [4] was < 100 nM, the Ki [2] was < 100 nM and the Ki [5] was < 100 nM. For the same molecule, the Ki [3, 7] was < 100 nM and the Ki [6] was < 100 nM.

In the case of O=C(O)c1cccc2c1OB(O)[C@@H](OC1CNC1)C2 [Compound 18, (R)-3-(azetidin-3-yloxy)-2-hydroxy-3,4-dihydro-2H-benzo[e][1,2]oxaborinine-8-carboxylic acid], the Ki [1] is reported as 100 to 1000 nM, the Ki [4] is reported as 100 to 1000 nM and the Ki [2] is reported as < 100 nM. The Ki [5] was < 100 nM and the Ki [6] was 100 to 1000 nM.

With O=C(O)c1cccc2c1OB(O)[C@@H](Sc1nccs1)C2 [Compound 11, (R)-2-hydroxy-3-(thiazol-2-ylthio)-3,4-dihydro-2H-benzo[e][1,2]oxaborinine-8-carboxylic acid] the Ki [2] was < 100 nM, the Ki [5] was < 100 nM and the Ki [3, 7] was < 100 nM. The Ki [6] was < 100 nM.

In the case of Nn1cnnc1S[C@H]1Cc2ccc(F)c(C(=O)O)c2OB1O [Compound 20, (R)-3-(4-amino-4H-1,2,4-triazol-3-ylthio)-7-fluoro-2-hydroxy-3,4-dihydro-2H-benzo[e][1,2]oxaborinine-8-carboxylic acid], the Ki [1] is reported as 100 to 1000 nM, the Ki [4] is reported as < 100 nM and the Ki [2] is reported as 100 to 1000 nM. For the same molecule, the Ki [5] was < 100 nM and the Ki [6] was 100 to 1000 nM.

CC(=N)S[C@H]1Cc2cccc(C(=O)O)c2OB1O [Compound 10, (R)-2-hydroxy-3-(1-iminoethylthio)-3,4-dihydro-2H-benzo[e][1,2]oxaborinine-8-carboxylic acid] was tested, and the Ki [1] was 100 to 1000 nM.

Cn1cnnc1S[C@H]1Cc2ccc(F)c(C(=O)O)c2OB1O [Compound 24, (R)-7-fluoro-2-hydroxy-3-(4-methyl-4H-1,2,4-triazol-3-ylthio)-3,4-dihydro-2H-benzo[e][1,2]oxaborinine-8-carboxylic acid] was tested, and the Ki [1] was 100 to 1000 nM, the Ki [4] was < 100 nM and the Ki [2] was < 100 nM. The Ki [5] was < 100 nM and the Ki [6] was 100 to 1000 nM.

In the case of CO[C@H]1Cc2cccc(C(=O)O)c2OB1O [Compound 17, (R)-2-hydroxy-3-methoxy-3,4-dihydro-2H-benzo[e][1,2]oxaborinine-8-carboxylic acid], the Ki [1] is reported as < 100 nM, the Ki [4] is reported as < 100 nM and the Ki [2] is reported as < 100 nM. For the same molecule, the Ki [5] was < 100 nM and the Ki [6] was < 100 nM.
